Results from US20230085307A1, “PYRIDAZINONE COMPOUND AND HERBICIDE” (NISSAN CHEMICAL CORPORATION, priority 2019, published 2023).

Legend:
false cleavers = assay: Test Example 5: herbicidal effect by foliage application, plastic box (Table 20, symbol Q); assay type: in vivo, false cleavers (Galium spurium); details: for Q: false cleavers, herbicidal effect grade / herbicidal effect on false cleavers (Q): foliage application, three weeks after application
Method in brief: (§1)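 Sow seeds spot-wise in sterilized diluvial soil; cover with ~1.5 cm soil. Grow 14 days in greenhouse, 25° C. to 30° C. Spray foliage with emulsion diluted to predetermined amount. Rate effect after 3 weeks.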

wheat [1] = assay: Test Example 4: effect on crop by soil treatment (Table 19, symbol e); assay type: in vivo; details: amount of applied herbicide 320 g/ha
Method in brief: (§2)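 Soil-surface application: an emulsion agent diluted with water to the predetermined dose is sprayed uniformly over seeds lying under roughly 1.5 cm of sterilized diluvial soil. Boxes stay in a greenhouse at 25° C. to 30° C. Three weeks later, each species is graded on previously defined criteria.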

transplanted rice = assay: Test Example 1: effect on crop, application before weed generation under submerged conditions (Table 16, symbol a); assay type: in vivo; details: amount of applied herbicide 320 g/ha
From the text: [Test Example 1] Herbicidal Activity Test by Application before Weed Generation under Submerged Conditions After alluvial soil was placed into 1/10000 are of Wagner pot, water was poured and mixed to form a submerged condition having a water depth of 4 cm. Seeds of late watergrass, Japanese bulrush, and oval-leafed pondweed were sowed in a mixed manner in the aforementioned pot, and then 2.5 leaf stage rice plant seedlings were transplanted thereto. On the day of sowing seeds, the emulsion agent of the compound of the present invention prepared according to Formulation Example 2 was diluted with water so as to achieve a predetermined herbicide amount, and the diluted emulsion agent was applied to the surface of the water. The pot was placed in a greenhouse at 25° C. to 30° C. for growth of the plants. Three weeks after the herbicide application, the effect of the herbicide on each plant was evaluated according to the following criteria. Evaluation Criteria 5: Herbicidal rate of 90% or more (almost completely withered) 4: Herbicidal rate of 70% or more and less than 90% 3: Herbicidal rate of 40% or more and less than 70% 2: Herbicidal rate of 20% or more and less than 40% 1: Herbicidal rate of 5% or more and less than 20% 0: Herbicidal rate of 5% or less (almost no effect)

wheat [2] = assay: Test Example 5: effect on crop by foliage application, plastic box (Table 20, symbol e); assay type: in vivo; details: 320 g/ha, three weeks after application
Method in brief: as §1

rapeseed [3] = assay: Test Example 5: effect on crop by foliage application, plastic box (Table 20, symbol g); assay type: in vivo; details: 320 g/ha, three weeks after application
Method in brief: as §1

soybean [4] = assay: Test Example 4: effect on crop by soil treatment (Table 19, symbol d); assay type: in vivo; details: amount of applied herbicide 320 g/ha
Method in brief: as §2

beet [5] = assay: Test Example 5: effect on crop by foliage application, plastic box (Table 20, symbol f); assay type: in vivo; details: 320 g/ha, three weeks after application
Method in brief: as §1

rapeseed [6] = assay: Test Example 4: effect on crop by soil treatment (Table 19, symbol g); assay type: in vivo; details: amount of applied herbicide 320 g/ha
Method in brief: as §2

soybean [7] = assay: Test Example 5: effect on crop by foliage application, plastic box (Table 20, symbol d); assay type: in vivo; details: 320 g/ha, three weeks after application
Method in brief: as §1

directly sowed rice = assay: Test Example 3: effect on crop by foliage application, Wagner pot (Table 18, symbol b); assay type: in vivo; details: 320 g/ha
Method in brief: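 Plants were sown in alluvial soil held under 0.1–0.5 cm standing water and grown 14 days in a greenhouse at 25–30 °C. An emulsifiable formulation, water-diluted to the set dose, was then sprayed onto the foliage, and effects were scored three weeks later using previously defined criteria.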

corn [8] = assay: Test Example 4: effect on crop by soil treatment (Table 19, symbol c); assay type: in vivo; details: amount of applied herbicide 320 g/ha
Method in brief: as §2

corn [9] = assay: Test Example 5: effect on crop by foliage application, plastic box (Table 20, symbol c); assay type: in vivo; details: 320 g/ha, three weeks after application
Method in brief: as §1

beet [10] = assay: Test Example 4: effect on crop by soil treatment (Table 19, symbol f); assay type: in vivo; details: amount of applied herbicide 320 g/ha
Method in brief: as §2

CCCC(=O)Oc1c(C)nn(C)c(=O)c1-c1c(-c2ccccc2OC)sc2cc(F)ccc12 [3-004]
Q: false cleavers, herbicidal effect grade (false cleavers; 320 g/ha): 5 (Herbicidal rate of 90% or more (almost completely withered))

COc1ccc(-c2sc3cc(F)ccc3c2-c2c(O)c(C)nn(C)c2=O)cc1 [3-005]
Q: false cleavers, herbicidal effect grade (false cleavers; 320 g/ha): 4 (Herbicidal rate of 70% or more and less than 90%)

CCCC(=O)Oc1c(C)nn(C)c(=O)c1-c1c(-c2ccccc2OCC)sc2cc(F)ccc12 [3-007]
Q: false cleavers, herbicidal effect grade (false cleavers; 320 g/ha): 5 (Herbicidal rate of 90% or more (almost completely withered))

CCCC(=O)Oc1c(C)nn(C)c(=O)c1-c1c(-c2ccccc2OCC)sc2cc(Cl)ccc12 [3-040]
Q: false cleavers, herbicidal effect grade (false cleavers; 320 g/ha): 5 (Herbicidal rate of 90% or more (almost completely withered))

CCCC(=O)Oc1c(C)nn(C)c(=O)c1-c1c(-c2ccccc2OC)sc2cc(C)ccc12 [3-050]
Q: false cleavers, herbicidal effect grade (false cleavers; 224 g/ha): 4 (Herbicidal rate of 70% or more and less than 90%)

CCCC(=O)Oc1c(C)nn(C)c(=O)c1-c1c(-c2ccccc2OCC)sc2cc(C)ccc12 [3-054]
Q: false cleavers, herbicidal effect grade (false cleavers; 304 g/ha): 5 (Herbicidal rate of 90% or more (almost completely withered))

COc1cc(F)ccc1-c1sc2cc(C)ccc2c1-c1c(O)c(C)nn(C)c1=O [3-055]
Q: false cleavers, herbicidal effect grade (false cleavers; 320 g/ha): 4 (Herbicidal rate of 70% or more and less than 90%)

CCCC(=O)Oc1c(C)nn(C)c(=O)c1-c1c(-c2ccccc2OCC)sc2cc(OC)ccc12 [3-071]
Q: false cleavers, herbicidal effect grade (false cleavers; 320 g/ha): 5 (Herbicidal rate of 90% or more (almost completely withered))

CCOc1cc(F)ccc1-c1sc2cc(OC)ccc2c1-c1c(O)c(C)nn(C)c1=O [3-078]
Q: false cleavers, herbicidal effect grade (false cleavers; 80 g/ha): 5 (Herbicidal rate of 90% or more (almost completely withered))

CCCC(=O)Oc1c(C)nn(C)c(=O)c1-c1c(-c2ccc(F)cc2OCC)sc2cc(OC)ccc12 [3-079]
Q: false cleavers, herbicidal effect grade (false cleavers; 320 g/ha): 5 (Herbicidal rate of 90% or more (almost completely withered))

COc1ccc2c(-c3c(O)c(C)nn(C)c3=O)c(-c3ccc4c(c3)OCCO4)sc2c1 [3-082]
Q: false cleavers, herbicidal effect grade (false cleavers; 320 g/ha): 5 (Herbicidal rate of 90% or more (almost completely withered))

CCCC(=O)Oc1c(C)nn(C)c(=O)c1-c1c(-c2ccc3c(c2)OCCO3)sc2cc(OC)ccc12 [3-083]
Q: false cleavers, herbicidal effect grade (false cleavers; 320 g/ha): 5 (Herbicidal rate of 90% or more (almost completely withered))

CCOc1ccc2c(-c3c(O)c(C)nn(C)c3=O)c(-c3ccccc3OC)sc2c1 [3-089]
Q: false cleavers, herbicidal effect grade (false cleavers; 320 g/ha): 5 (Herbicidal rate of 90% or more (almost completely withered))

CCOc1ccc2c(-c3c(O)c(C)nn(C)c3=O)c(-c3ccccc3OCC)sc2c1 [3-093]
Q: false cleavers, herbicidal effect grade (false cleavers; 320 g/ha): 5 (Herbicidal rate of 90% or more (almost completely withered))

CCCC(=O)Oc1c(C)nn(C)c(=O)c1-c1c(-c2ccccc2OCC)sc2cc(OCC)ccc12 [3-094]
Q: false cleavers, herbicidal effect grade (false cleavers; 323 g/ha): 5 (Herbicidal rate of 90% or more (almost completely withered))

CCCC(=O)Oc1c(C)nn(C)c(=O)c1-c1c(-c2ccc(F)cc2OCC)sc2cc(OCC)ccc12 [3-096]
Q: false cleavers, herbicidal effect grade (false cleavers; 320 g/ha): 5 (Herbicidal rate of 90% or more (almost completely withered))

CCCC(=O)Oc1c(C)nn(C)c(=O)c1-c1c(-c2ccccc2OC)sc2cc(F)c(F)cc12 [5-012]
Herbicidal effect by foliage application, Q: false cleavers (false cleavers; amount of applied herbicide 320 g/ha, foliage application after 14-day growth, evaluated three weeks after application): 5 (Herbicidal rate of 90% or more (almost completely withered))

CCOc1ccc2c(-c3c(O)c(C)nn(C)c3=O)c(-c3ccccc3OC)sc2c1Cl [7-003]
herbicidal effect on false cleavers (Q) (false cleavers; 320 g/ha): 5 (Herbicidal rate of 90% or more (almost completely withered))

CCCC(=O)Oc1c(C)nn(C)c(=O)c1-c1c(-c2ccc(F)cc2)oc2ccc(C)cc12 [9-005]
herbicidal effect on false cleavers (Q) (false cleavers; 390 g/ha): 4 (Herbicidal rate of 70% or more and less than 90%)

COc1ccc(-c2oc3ccc(C)cc3c2-c2c(O)c(C)nn(C)c2=O)cc1 [9-007]
herbicidal effect on false cleavers (Q) (false cleavers; 320 g/ha): 1 (Herbicidal rate of 5% or more and less than 20%)

CCCC(=O)Oc1c(C)nn(C)c(=O)c1-c1c(-c2ccc(OC)cc2)oc2ccc(C)cc12 [9-008]
herbicidal effect on false cleavers (Q) (false cleavers; 320 g/ha): 0 (Herbicidal rate of 5% or less (almost no effect))

COc1ccc2c(-c3c(O)c(Cl)nn(C)c3=O)c(-c3ccccc3OC)sc2c1 [Compound No. 3-088, 6-chloro-5-hydroxy-4-(6-methoxy-2-(2-methoxyphenyl)benzo[b]thiophen-3-yl)-2-methylpyridazin-3(2H)-one]
e: wheat, effect on crop grade (wheat [1]): 0 (Herbicidal rate of 5% or less (almost no effect))
Effect on crop, a: transplanted rice (transplanted rice): 0 (Herbicidal rate of 5% or less (almost no effect))
e: wheat, effect on crop grade (wheat [2]): 0 (Herbicidal rate of 5% or less (almost no effect))
g: rapeseed, effect on crop grade (rapeseed [3]): 5 (Herbicidal rate of 90% or more (almost completely withered))
melting point: 209 to 211 °C
d: soybean, effect on crop grade (soybean [4]): 1 (Herbicidal rate of 5% or more and less than 20%)
f: beet, effect on crop grade (beet [5]): 5 (Herbicidal rate of 90% or more (almost completely withered))
g: rapeseed, effect on crop grade (rapeseed [6]): 5 (Herbicidal rate of 90% or more (almost completely withered))
d: soybean, effect on crop grade (soybean [7]): 3 (Herbicidal rate of 40% or more and less than 70%)
effect on directly sowed rice (b) (directly sowed rice): 0 (Herbicidal rate of 5% or less (almost no effect))
c: corn, effect on crop grade (corn [8]): 0 (Herbicidal rate of 5% or less (almost no effect))
c: corn, effect on crop grade (corn [9]): 0 (Herbicidal rate of 5% or less (almost no effect))
f: beet, effect on crop grade (beet [10]): 3 (Herbicidal rate of 40% or more and less than 70%)

COc1ccccc1-c1sc2cc(OCC(F)(F)F)ccc2c1-c1c(O)c(C)nn(C)c1=O [Compound No. 3-116, 5-hydroxy-4-(2-(2-methoxyphenyl)-6-(2,2,2-trifluoroethoxy)benzo[b]thiophen-3-yl)-2,6-di methylpyridazin-3 (2H)-one]
e: wheat, effect on crop grade (wheat [1]): 1 (Herbicidal rate of 5% or more and less than 20%)
Effect on crop, a: transplanted rice (transplanted rice): 4 (Herbicidal rate of 70% or more and less than 90%)
e: wheat, effect on crop grade (wheat [2]): 3 (Herbicidal rate of 40% or more and less than 70%)
g: rapeseed, effect on crop grade (rapeseed [3]): 5 (Herbicidal rate of 90% or more (almost completely withered))
melting point: 216 to 218 °C
d: soybean, effect on crop grade (soybean [4]): 1 (Herbicidal rate of 5% or more and less than 20%)
f: beet, effect on crop grade (beet [5]): 5 (Herbicidal rate of 90% or more (almost completely withered))
g: rapeseed, effect on crop grade (rapeseed [6]): 5 (Herbicidal rate of 90% or more (almost completely withered))
d: soybean, effect on crop grade (soybean [7]): 5 (Herbicidal rate of 90% or more (almost completely withered))
effect on directly sowed rice (b) (directly sowed rice): 5 (Herbicidal rate of 90% or more (almost completely withered))
c: corn, effect on crop grade (corn [8]): 0 (Herbicidal rate of 5% or less (almost no effect))
c: corn, effect on crop grade (corn [9]): 0 (Herbicidal rate of 5% or less (almost no effect))
f: beet, effect on crop grade (beet [10]): 5 (Herbicidal rate of 90% or more (almost completely withered))
